Data: patent publication US9387209B2, “Histone deacetylases (HDACs) inhibitors” (ANNJI PHARMACEUTICAL CO., LTD., priority 2012, dated 2016)
Where two headings read alike, the source gives them in different places.

Tests used:
[1] = MTT or SRB assay for cytotoxicity, A549; assay type: cell-based; conditions: human, A549 cells, read-out: cytotoxicity IC50 (grading) A549
Experimental: (§1) MTT or SRB Assays for Cytotoxicities of HDAC Inhibitors.
(§2) These compounds were assayed for cytotoxicities to the following cells: A549 cells (adenocarcinomic human alveolar basal epithelial cells), HCT-116 cells (human colon carcinoma cells). PANC-1 cells (human pancreatic carcinoma, epithelial-like cell line) and HepG2 cells (human liver hepatocellular carcinoma cell line), neuronal cells PC12 (rat pheochromocytoma cell line) and SH-SY5Y (human neuroblastoma cell line). MTT (3-[4,5-dimethylthiazol-2-yl]2,5-diphenyl-tetrazolium bromide) reduction was collaborated by using trypan blue exclusion assay.

[2] = MTT or SRB assay for cytotoxicity, HCT116; assay type: cell-based; conditions: human, HCT-116 cells, read-out: cytotoxicity IC50 (grading) HCT116
Experimental: as §1, §2

[3] = MTT or SRB assay for cytotoxicity, PANC1; assay type: cell-based; conditions: human, PANC-1 cells, read-out: cytotoxicity IC50 (grading) PANC1
Experimental: as §1, §2

[4] = MTT or SRB assay for cytotoxicity, HepG2; assay type: cell-based; conditions: human, HepG2 cells, read-out: cytotoxicity IC50 (grading) HepG2
Experimental: as §1, §2

[5] = target: human histone deacetylases (HDAC) 1 (Homo sapiens, UniProt Q13547); test: HDAC enzymatic assay, HDAC1; assay type: biochemical; conditions: read-out: IC50 HDAC1 (grading)
[6] = target: T1, human histone deacetylases (HDAC) 6 (Homo sapiens, UniProt Q9UBN7); test: HDAC enzymatic assay, HDAC6; assay type: biochemical; conditions: for selective inhibitions on HDAC6: HDAC6 versus other HDACs
T1 sequence (Q9UBN7 1-1215): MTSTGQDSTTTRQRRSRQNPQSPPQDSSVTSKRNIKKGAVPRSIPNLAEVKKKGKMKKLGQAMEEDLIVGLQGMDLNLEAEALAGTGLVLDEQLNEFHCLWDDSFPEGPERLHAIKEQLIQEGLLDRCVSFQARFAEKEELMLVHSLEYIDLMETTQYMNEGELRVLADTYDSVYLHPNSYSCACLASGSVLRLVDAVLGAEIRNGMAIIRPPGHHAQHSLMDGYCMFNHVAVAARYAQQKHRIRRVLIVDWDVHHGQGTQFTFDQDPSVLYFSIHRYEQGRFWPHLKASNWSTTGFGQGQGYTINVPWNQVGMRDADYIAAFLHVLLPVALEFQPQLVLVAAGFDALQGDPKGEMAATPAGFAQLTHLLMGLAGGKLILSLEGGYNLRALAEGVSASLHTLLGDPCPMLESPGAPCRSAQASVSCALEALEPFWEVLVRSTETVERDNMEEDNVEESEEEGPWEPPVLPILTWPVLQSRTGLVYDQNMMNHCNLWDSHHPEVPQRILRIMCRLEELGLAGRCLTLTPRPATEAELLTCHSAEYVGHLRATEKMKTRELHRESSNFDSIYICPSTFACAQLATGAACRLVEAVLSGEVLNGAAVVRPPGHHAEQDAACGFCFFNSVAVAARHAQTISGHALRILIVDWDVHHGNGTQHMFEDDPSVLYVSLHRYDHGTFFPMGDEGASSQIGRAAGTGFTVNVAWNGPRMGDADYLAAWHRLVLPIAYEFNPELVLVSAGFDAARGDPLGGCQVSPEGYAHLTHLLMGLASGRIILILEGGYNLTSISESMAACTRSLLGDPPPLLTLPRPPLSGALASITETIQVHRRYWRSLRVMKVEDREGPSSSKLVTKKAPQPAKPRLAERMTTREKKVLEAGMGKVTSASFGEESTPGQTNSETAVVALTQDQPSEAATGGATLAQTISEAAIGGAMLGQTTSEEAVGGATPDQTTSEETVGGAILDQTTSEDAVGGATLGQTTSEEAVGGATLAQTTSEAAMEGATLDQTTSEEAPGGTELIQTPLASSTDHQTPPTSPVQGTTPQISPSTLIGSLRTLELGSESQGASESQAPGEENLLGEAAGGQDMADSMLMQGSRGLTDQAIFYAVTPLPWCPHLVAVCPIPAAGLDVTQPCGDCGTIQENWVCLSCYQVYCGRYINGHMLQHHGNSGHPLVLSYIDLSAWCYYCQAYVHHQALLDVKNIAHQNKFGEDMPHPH

[7] = target: T2, human histone deacetylases (HDAC) 8 (Homo sapiens, UniProt Q9BY41); test: HDAC enzymatic assay, HDAC8; assay type: biochemical
T2 sequence (Q9BY41 1-377): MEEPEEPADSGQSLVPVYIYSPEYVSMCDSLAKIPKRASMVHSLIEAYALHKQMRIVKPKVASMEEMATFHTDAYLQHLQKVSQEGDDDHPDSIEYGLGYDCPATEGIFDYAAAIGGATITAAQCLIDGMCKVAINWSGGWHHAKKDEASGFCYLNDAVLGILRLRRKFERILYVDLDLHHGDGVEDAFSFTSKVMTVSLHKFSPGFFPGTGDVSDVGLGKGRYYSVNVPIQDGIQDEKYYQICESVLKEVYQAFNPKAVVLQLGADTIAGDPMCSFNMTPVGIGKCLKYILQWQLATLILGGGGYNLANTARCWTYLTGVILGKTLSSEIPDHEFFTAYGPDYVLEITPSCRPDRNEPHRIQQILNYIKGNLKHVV

PC 12 cells [8] = test: Neurite outgrowth assay, PC 12; assay type: cell-based; conditions: Rattus norvegicus
SH-SY5Y cells [9] = test: Neurite outgrowth assay, SH-SY5Y; assay type: cell-based; conditions: Homo sapiens
PC 12 cells [10] = test: Neurite synaptic uptake activity (FM1-43), PC 12; assay type: cell-based; conditions: Rattus norvegicus, NGF positive control taken as 100%, read-out: uptake of dye FM1-43 EC50
Experimental: (§3) Neurite Synaptic Uptake Activity Analysis.
(§4) The effects of compounds on the neuronal synapse uptake of fluorescent indicator FM1-43 were assayed. The uptake of the dye indicated the synaptic function of the neurites. PC 12 and SH-SY5Y cells were used. Cells in experimental groups were treated with a test compound and FM1-43; Cells in positive control were treated with NGF and FM1-43; Cells in negative control were treated with a vehicle and FM1-43. The fluorescence in the positive control were taken as 100%.

SH-SY5Y cells [11] = test: Neurite synaptic uptake activity (FM1-43), SH-SY5Y; assay type: cell-based; conditions: Homo sapiens, NGF positive control taken as 100%, read-out: uptake of dye FM1-43 EC50
Experimental: as §3, §4

[12] = HDAC6, read-out: IC50 HDAC6 (grading)
[13] = HDAC8, read-out: IC50 HDAC8 (grading)

Sequence of human histone deacetylases (HDAC) 1 (Q13547 whole entry): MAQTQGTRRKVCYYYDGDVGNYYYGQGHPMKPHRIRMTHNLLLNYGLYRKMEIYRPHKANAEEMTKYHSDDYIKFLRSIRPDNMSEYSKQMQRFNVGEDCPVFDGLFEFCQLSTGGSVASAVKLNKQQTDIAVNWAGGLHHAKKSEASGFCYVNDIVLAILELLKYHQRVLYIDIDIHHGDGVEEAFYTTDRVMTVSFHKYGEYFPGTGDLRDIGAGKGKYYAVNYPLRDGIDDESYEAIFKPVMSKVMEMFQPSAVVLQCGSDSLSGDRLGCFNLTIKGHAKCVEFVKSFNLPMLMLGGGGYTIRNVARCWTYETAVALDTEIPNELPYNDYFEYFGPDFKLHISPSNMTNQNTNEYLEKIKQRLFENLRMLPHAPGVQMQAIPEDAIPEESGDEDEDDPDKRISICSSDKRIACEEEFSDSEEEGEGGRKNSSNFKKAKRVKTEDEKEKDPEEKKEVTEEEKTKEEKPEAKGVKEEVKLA

Row | Structure (SMILES) | IC50 [1] [µM] | IC50 [2] [µM] | IC50 [3] [µM] | IC50 [4] [µM] | melting point | IC50 [5] [µM] | IC50 [6, 12] [µM] | IC50 [7, 13] [µM] | EC50 (PC 12 cells [8]) [µM] | EC50 (SH-SY5Y cells [9]) [µM] | EC50 (PC 12 cells [10]) [µM] | EC50 (SH-SY5Y cells [11]) [µM] | selective inhibitions on HDAC6 [6] | IC50 [6] [µM] | IC50 [7] [µM]
1 | CCc1nc2c(-c3ccc(C(=O)NO)cc3)cccc2c(=O)n1CCc1ccccc1 [Compound 5a, 4-(2-ethyl-3,4-dihydro-4-oxo-3-phenethylquinazolin-8-yl)-N-hydroxybenzamide] | ≥ 10 | ≥ 10 | 1 to 10 | ≥ 10 | 202 to 204 °C (dec.) |  |  |  |  |  |  |  |  |  | 
2 | CCc1nc2cc(Cl)c(/C=C/C(=O)NO)cc2c(=O)n1CCc1ccccc1 [Compound 3b, (2E)-3-(7-chloro-2-ethyl-3,4-dihydro-4-oxo-3-phenethylquinazolin-6-yl)-N-hydroxyacrylamide] | 1 to 10 | ≥ 10 | 0.1 to 1 | ≥ 10 |  | > 10 | 0.1 to 1 | 1 to 10 | 10.7 ± 1.26 | 7.63 ± 0.74 | 10.7 ± 1.26 | 7.63 ± 0.74 |  |  | 
3 | CC(C)c1nc2cc(/C=C/C(=O)NO)ccc2c(=O)n1CCc1ccccc1 [Compound 1l, (2E)-3-(3,4-dihydro-2-isopropyl-4-oxo-3-phenethylquinazolin-7-yl)-N-hydroxyacrylamide] |  |  |  |  | 173 to 174 °C (dec.) | 0.1 to 1 | < 0.1 |  | 5.28 ± 0.51 | 6.74 ± 0.78 | 5.28 ± 0.51 | 6.74 ± 0.78 |  |  | 
4 | CCc1nc2cc(/C=C/C(=O)NO)ccc2c(=O)n1CCCc1ccccc1 [Compound 1j, (2E)-3-(2-ethyl-3,4-dihydro-4-oxo-3-(3-phenylpropyl)quinazolin-7-yl)-N-hydroxyacrylamide] |  |  |  |  | 189 to 191 °C | 1 to 10 | < 0.1 | 1 to 10 | 6.95 ± 0.82 | 9.97 ± 1.17 | 6.95 ± 0.82 | 9.97 ± 1.17 | selective inhibitions on HDAC6 |  | 
5 | CCc1nc2cc(/C=C/C(=O)NO)c(F)cc2c(=O)n1CCc1ccccc1 [Compound 2a, (2E)-3-(2-ethyl-6-fluoro-3,4-dihydro-4-oxo-3-phenethylquinazolin-7-yl)-N-hydroxyacrylamide] | 1 to 10 | 1 to 10 | 1 to 10 | 1 to 10 |  | 1 to 10 | < 0.1 | 1 to 10 |  |  | 1.66 ± 0.76 |  | selective inhibitions on HDAC6 |  | 
6 | CCc1nc2c(Cc3ccc(C(=O)NO)cc3)cccc2c(=O)n1CCc1ccccc1 [Compound 4c, 4-((2-ethyl-3,4-dihydro-4-oxo-3-phenethylquinazolin-8-yl)methyl)-N-hydroxybenzamide] | ≥ 10 | ≥ 10 | ≥ 10 | 1 to 10 |  |  |  |  |  |  | 5.34 ± 0.85 |  |  | 0.1 to 1 | 0.1 to 1
7 | O=C(/C=C/c1ccc2c(=O)n(CCc3ccccc3)c(C3CC3)nc2c1)NO [Compound 1k, (2E)-3-(2-cyclopropyl-3,4-dihydro-4-oxo-3-phenethylquinazolin-7-yl)-N-hydroxyacrylamide] |  |  |  |  | 204 to 206 °C (dec.) | 0.1 to 1 | < 0.1 |  | 0.76 ± 0.69 | > 30 | 0.76 ± 0.69 | > 30 |  |  | 
8 | CCc1nc2cc(F)c(/C=C/C(=O)NO)cc2c(=O)n1CCc1ccccc1 [Compound 3a, (2E)-3-(2-ethyl-7-fluoro-3,4-dihydro-4-oxo-3-phenethylquinazolin-6-yl)-N-hydroxyacrylamide] | 1 to 10 | ≥ 10 | ≥ 10 | ≥ 10 | 183 to 185 °C (dec.) | 1 to 10 | < 0.1 | 0.1 to 1 |  |  | 0.78 ± 0.49 |  | selective inhibitions on HDAC6 |  | 
9 | CCc1nc2ccc(Cc3ccc(C(=O)NO)cc3)cc2c(=O)n1CCc1ccccc1 [Compound 4a, 4-((2-ethyl-3,4-dihydro-4-oxo-3-phenethylquinazolin-6-yl)methyl)-N-hydroxybenzamide] |  |  |  |  |  | 1 to 10 | < 0.1 | < 0.1 | 2.89 ± 0.45 | 4.06 ± 0.58 | 2.89 ± 0.45 | 4.06 ± 0.58 | selective inhibitions on HDAC6 |  | 
10 | CCc1nc2cc(Cc3ccc(C(=O)NO)cc3)ccc2c(=O)n1CCc1ccccc1 [Compound 4b, 4-((2-ethyl-3,4-dihydro-4-oxo-3-phenethylquinazolin-7-yl)methyl)-N-hydroxybenzamide] | 1 to 10 | 1 to 10 | 1 to 10 | 0.1 to 1 | 181 to 183 °C (dec.) |  | < 0.1 |  |  |  |  |  | selective inhibitions on HDAC6 |  | 
11 | Cc1nc2cc(/C=C/C(=O)NO)ccc2c(=O)n1-c1ccccc1 [Compound 1c, (2E)-3-(3,4-dihydro-2-methyl-4-oxo-3-phenylquinazolin-7-yl)-N-hydroxyacrylamide] |  |  |  |  |  |  |  |  |  |  |  |  |  | < 0.1 | 1 to 10
